pIC50: −log10 of the molar value. Values joined by “and” are separate entries in the source; they are usually repeats but may differ in a detail not shown here. Identical values can stand only once.

Our source for the viability, T/C and IC50 values is PubChem BioAssay AID1918936 (Molecular Pharmacology Branch, DTP, NCI, 2023).

The test has as its system 349418-098-R-PDC complex spheroid viability. Nature of the test: Anticancer human tumor 349418-098-R-PDC patient-derived lung adenocarcinoma cell line growth inhibition. Particulars: for viability, T/C: stronger effect = lower value. Summed up: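 Drug combinations with the LSD1 inhibitor iadademstat tested on tumor cells co-cultured as spheroids with endothelial cells and mesenchymal stem cells. Concentrations descended in half-log increments from clinical Cmax or 10 microM.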

Where [1] appears, read: curve of first compound, second compound 0.1 µM.
Where [2] appears, read: curve of first compound, second compound 0.316 µM.
The mark [3] stands for this setting: curve of first compound, second compound 1 µM.
Where [4] appears, read: curve of first compound, second compound 3.16 µM.
The mark [5] stands for this setting: curve of first compound, second compound 10 µM.
The mark [6] stands for this setting: second compound 0.1 µM, first compound 0.0316 µM.
Where [7] appears, read: second compound 0.1 µM, first compound 0.1 µM.
The mark [8] stands for this setting: second compound 0.1 µM, first compound 0.316 µM.
[9] abbreviates: second compound 0.1 µM, first compound 1 µM.
The mark [10] stands for this setting: second compound 0.316 µM, first compound 0.0316 µM.
Setting [11] is: second compound 0.316 µM, first compound 0.1 µM.
Setting [12] is: second compound 0.316 µM, first compound 0.316 µM.
Setting [13] is: second compound 0.316 µM, first compound 1 µM.
[14] abbreviates: second compound 1 µM, first compound 0.0316 µM.
Where [15] appears, read: second compound 1 µM, first compound 0.1 µM.
Setting [16] is: second compound 1 µM, first compound 0.316 µM.
Where [17] appears, read: second compound 1 µM, first compound 1 µM.
The mark [18] stands for this setting: second compound 3.16 µM, first compound 0.0316 µM.
[19] abbreviates: second compound 3.16 µM, first compound 0.1 µM.
Setting [20] is: second compound 3.16 µM, first compound 0.316 µM.
The mark [21] stands for this setting: second compound 3.16 µM, first compound 1 µM.
Where [22] appears, read: second compound 10 µM, first compound 0.0316 µM.
Where [23] appears, read: second compound 10 µM, first compound 0.1 µM.
[24] abbreviates: second compound 10 µM, first compound 0.316 µM.
The mark [25] stands for this setting: second compound 10 µM, first compound 1 µM.
The mark [26] stands for this setting: second compound 0.1 µM, first compound 0.00316 µM.
[27] abbreviates: second compound 0.1 µM, first compound 0.01 µM.
Where [28] appears, read: second compound 0.316 µM, first compound 0.00316 µM.
Where [29] appears, read: second compound 0.316 µM, first compound 0.01 µM.
Setting [30] is: second compound 1 µM, first compound 0.00316 µM.
The mark [31] stands for this setting: second compound 1 µM, first compound 0.01 µM.
[32] abbreviates: second compound 3.16 µM, first compound 0.00316 µM.
Where [33] appears, read: second compound 3.16 µM, first compound 0.01 µM.
The mark [34] stands for this setting: second compound 10 µM, first compound 0.00316 µM.
Setting [35] is: second compound 10 µM, first compound 0.01 µM.
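Note: spheroids exposed to agents for seven days before readout.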
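Throughout, for viability, T/C: 100% = DMSO vehicle control wells.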

On to `Nc1ncn(C2CC(O)C(CO)S2)c(=O)n1` (stereo not drawn), for which the viability, T/C reads like this: (compound 0.000949 µM) 104% and 92.4%; (compound 0.003 µM) 84% and 91.7%; (compound 0.00949 µM) 64.8% and 63.6%; (compound 0.03 µM) 33.8% and 29.8%; (compound 0.0949 µM) 16.8% and 11.8%; (compound 0.3 µM) 8.91% and 5.28%. For the same compound, for the setting “curve of compound”, the negative-log IC50 (pIC50) was 7.80 and 7.81.

Turning to `Nc1ccn(C2OC(CO)C(O)C2(F)F)c(=O)n1` (stereo not drawn), the viability, T/C is, setting by setting: (compound 0.000949 µM) 5.35% and 15%; (compound 0.003 µM) 5.18% and 4.23%; (compound 0.00949 µM) 4.99% and 4.4%; (compound 0.03 µM) 4% and 4.8%; (compound 0.0949 µM) 4.25% and 4.46%; (compound 0.3 µM) 4.05% and 4.24%. Where the note is “curve of compound”, the pIC50 is over 9.02.

For `CC1COCCN1c1cc(C2(S(C)(=N)=O)CC2)nc(-c2ccnc3[nH]ccc23)n1` (stereo not drawn), the viability, T/C is 106% and 107% (compound 0.0316 µM); 91.2% and 108% (compound 0.1 µM); 57% and 96.7% (compound 0.316 µM); 14.8% and 49.8% (compound 1 µM); 10.1% and 11.9% (compound 3.16 µM); 10.6% and 11.5% (compound 10 µM). Also, the pIC50 (curve of compound) is 6.43 and 6.01.

As for `CC(C)c1c(-c2ccccc2)nc2c(C#N)c[nH]n2c1=O` + NC1CCC(NC2CC2c2ccccc2)CC1, the pIC50 is under 5.00 under setting [1]; under 5.00 under setting [2]; under 5.00 under setting [3]; under 5.00 under setting [4]; under 5.00 under setting [5]. Also, the viability, T/C was 108% under setting [6]; 112% under setting [7]; 93.7% under setting [8]; 105% under setting [9]; 104% (second compound 0.1 µM, first compound 3.16 µM); 88.1% (second compound 0.1 µM, first compound 10 µM). The viability, T/C under setting [10] is 108%; the viability, T/C under setting [11] was 110%; the viability, T/C under setting [12] was 113%; the viability, T/C under setting [13] was 104%; the viability, T/C (second compound 0.316 µM, first compound 3.16 µM) is 101%; the viability, T/C (second compound 0.316 µM, first compound 10 µM) was 98.8%. In addition, the viability, T/C was 104% under setting [14]; 113% under setting [15]; 108% under setting [16]; 100% under setting [17]; 104% (second compound 1 µM, first compound 3.16 µM); 93.8% (second compound 1 µM, first compound 10 µM). For the same compound, the viability, T/C by setting is: under setting [18], 96.4%; under setting [19], 92.5%; under setting [20], 113%; under setting [21], 108%; (second compound 3.16 µM, first compound 3.16 µM) 102%; (second compound 3.16 µM, first compound 10 µM) 87.3%. Besides, the viability, T/C is 101% under setting [22]; 84.1% under setting [23]; 108% under setting [24]; 93.6% under setting [25]; 86.4% (second compound 10 µM, first compound 3.16 µM); 78.7% (second compound 10 µM, first compound 10 µM).

As for `CC(C)CC(NC(=O)C(Cc1ccccc1)NC(=O)c1cnccn1)B(O)O` (stereo not drawn) + NC1CCC(NC2CC2c2ccccc2)CC1, the negative logarithm of the IC50 (pIC50) is over 9.50 under setting [1]; over 9.50 under setting [2]; over 9.50 under setting [3]; over 9.50 under setting [4]; over 9.50 under setting [5]. In addition, the viability, T/C was 9.12% (second compound 0.1 µM, first compound 0.000316 µM); 2.17% (second compound 0.1 µM, first compound 0.001 µM); 1.09% under setting [26]; 0.81% under setting [27]; 0.69% under setting [6]; 0.6% under setting [7]. The viability, T/C is 7.64% (second compound 0.316 µM, first compound 0.000316 µM); 2.21% (second compound 0.316 µM, first compound 0.001 µM); 1.14% under setting [28]; 0.67% under setting [29]; 0.64% under setting [10]; 0.58% under setting [11]. The viability, T/C is 9.06% (second compound 1 µM, first compound 0.000316 µM); 1.64% (second compound 1 µM, first compound 0.001 µM); 0.88% under setting [30]; 0.64% under setting [31]; 0.7% under setting [14]; 0.62% under setting [15]. For the same compound, the viability, T/C by setting is: (second compound 3.16 µM, first compound 0.000316 µM) 8.64%; (second compound 3.16 µM, first compound 0.001 µM) 1.66%; under setting [32], 0.69%; under setting [33], 0.63%; under setting [18], 0.46%; under setting [19], 0.51%. Further, the viability, T/C was 6.88% (second compound 10 µM, first compound 0.000316 µM); 1.23% (second compound 10 µM, first compound 0.001 µM); 0.77% under setting [34]; 0.45% under setting [35]; 0.75% under setting [22]; 0.41% under setting [23].

Turning to `CC1COCCN1c1cc(-c2ccnn2C)c2ccnc(-c3ccn[nH]3)c2n1` (stereo not drawn) + NC1CC1c1ccc(-c2cccc(O)c2)cc1, the negative logarithm of the IC50 (pIC50) under setting [1] is over 8.50; the negative-log IC50 (pIC50) under setting [2] is over 8.50; the negative-log IC50 (pIC50) under setting [3] was over 8.50; the negative logarithm of the IC50 (pIC50) under setting [4] is over 8.50; the negative-log IC50 (pIC50) under setting [5] was over 8.50. In addition, the viability, T/C by setting is: under setting [26], 27.6%; under setting [27], 16.8%; under setting [6], 8.87%; under setting [7], 6.42%; under setting [8], 5.35%; under setting [9], 4.21%. For the same compound, the viability, T/C reads like this: under setting [28], 25.8%; under setting [29], 15.6%; under setting [10], 8.79%; under setting [11], 6.08%; under setting [12], 5.05%; under setting [13], 4.22%. Besides, the viability, T/C by setting is: under setting [30], 23.5%; under setting [31], 14.9%; under setting [14], 8.57%; under setting [15], 6.23%; under setting [16], 4.88%; under setting [17], 4.83%. Moreover, the viability, T/C by setting is: under setting [32], 22%; under setting [33], 16%; under setting [18], 8.3%; under setting [19], 5.96%; under setting [20], 5.3%; under setting [21], 4.55%. The viability, T/C is 16.9% under setting [34]; 12.8% under setting [35]; 6.32% under setting [22]; 5% under setting [23]; 4.59% under setting [24]; 3.83% under setting [25].

Consider `COc1cc(Nc2ncc3c(n2)-c2ccc(Cl)cc2C(c2c(F)cccc2OC)=NC3)ccc1C(=O)O`, for which the viability, T/C was 81.5% and 59.7% (compound 0.00316 µM); 63.8% and 43.1% (compound 0.01 µM); 35.4% and 41.2% (compound 0.0316 µM); 40.7% and 45.3% (compound 0.1 µM); 31.1% and 40.4% (compound 0.316 µM); 31.7% and 39.1% (compound 1 µM). For the same compound, the negative logarithm of the IC50 (pIC50) (curve of compound) is 7.76 and 8.21.

The viability, T/C is the result in the treated group divided by that in the control group, in per cent. One may read the pIC50 as the negative decadic logarithm of the IC50, by convention in mol/L.
